Test results from ChEMBL document CHEMBL4507315 (2021).

What was measured:
[1] = target: Serine/threonine-protein kinase 33 (Homo sapiens) (UniProt Q9BYT3); settings: Compound concentration 100.0 nM
[2] = target: Serine/threonine-protein kinase 17B (Homo sapiens) (UniProt O94768); settings: Compound concentration 100.0 nM
[3] = target: Ribosomal protein S6 kinase alpha-5 (Homo sapiens) (UniProt O75582); settings: Compound concentration 100.0 nM
[4] = target: Mitogen-activated protein kinase kinase kinase kinase 2 (Homo sapiens) (UniProt Q12851); settings: Compound concentration 100.0 nM
[5] = target: Serine/threonine-protein kinase N2 (Homo sapiens) (UniProt Q16513); settings: Compound concentration 100.0 nM
[6] = target: Membrane-associated tyrosine- and threonine-specific cdc2-inhibitory kinase (Homo sapiens) (UniProt Q99640); settings: Compound concentration 100.0 nM
[7] = test system: Epidermal growth factor receptor (Homo sapiens), P00533 [L861Q]; settings: Compound concentration 100.0 nM
[8] = target: Serine/threonine-protein kinase BRSK1 (Homo sapiens) (UniProt Q8TDC3); settings: Compound concentration 100.0 nM
[9] = target: MAP/microtubule affinity-regulating kinase 3 (Homo sapiens) (UniProt P27448); settings: Compound concentration 100.0 nM
[10] = target: Serine/threonine-protein kinase 10 (Homo sapiens) (UniProt O94804); settings: Compound concentration 100.0 nM
[11] = target: Rho-associated protein kinase 2 (Homo sapiens) (UniProt O75116); settings: Compound concentration 100.0 nM
[12] = target: Mitogen-activated protein kinase 13 (Homo sapiens) (UniProt O15264); settings: Compound concentration 100.0 nM
[13] = target: Aurora kinase A (Homo sapiens) (UniProt O14965); settings: Compound concentration 100.0 nM
[14] = target: Myosin-IIIa (Homo sapiens) (UniProt Q8NEV4); settings: Compound concentration 100.0 nM
[15] = target: Calcium/calmodulin-dependent protein kinase type II subunit delta (Homo sapiens) (UniProt Q13557); settings: Compound concentration 100.0 nM
[16] = target: Ribosomal protein S6 kinase alpha-6 (Homo sapiens) (UniProt Q9UK32); settings: Compound concentration 100.0 nM
[17] = target: RAC-gamma serine/threonine-protein kinase (Homo sapiens) (UniProt Q9Y243); settings: Compound concentration 100.0 nM
[18] = test system: Tyrosine-protein kinase ABL1 (Homo sapiens), P00519 [F317L]; settings: Compound concentration 100.0 nM
[19] = test system: Tyrosine-protein kinase ABL1 (Homo sapiens), P00519 [H396P]; settings: Compound concentration 100.0 nM
[20] = target: Serine/threonine-protein kinase WNK3 (Homo sapiens) (UniProt Q9BYP7); settings: Compound concentration 100.0 nM
[21] = target: Homeodomain-interacting protein kinase 2 (Homo sapiens) (UniProt Q9H2X6); settings: Compound concentration 100.0 nM
[22] = target: Sodium-dependent noradrenaline transporter (Homo sapiens) (UniProt P23975); settings: Compound concentration 10.0 uM
[23] = target: Atypical kinase COQ8A, mitochondrial (Homo sapiens) (UniProt Q8NI60); settings: Compound concentration 100.0 nM
Sequence of Atypical kinase COQ8A, mitochondrial (Homo sapiens) (Q8NI60 163-647 limits assumed): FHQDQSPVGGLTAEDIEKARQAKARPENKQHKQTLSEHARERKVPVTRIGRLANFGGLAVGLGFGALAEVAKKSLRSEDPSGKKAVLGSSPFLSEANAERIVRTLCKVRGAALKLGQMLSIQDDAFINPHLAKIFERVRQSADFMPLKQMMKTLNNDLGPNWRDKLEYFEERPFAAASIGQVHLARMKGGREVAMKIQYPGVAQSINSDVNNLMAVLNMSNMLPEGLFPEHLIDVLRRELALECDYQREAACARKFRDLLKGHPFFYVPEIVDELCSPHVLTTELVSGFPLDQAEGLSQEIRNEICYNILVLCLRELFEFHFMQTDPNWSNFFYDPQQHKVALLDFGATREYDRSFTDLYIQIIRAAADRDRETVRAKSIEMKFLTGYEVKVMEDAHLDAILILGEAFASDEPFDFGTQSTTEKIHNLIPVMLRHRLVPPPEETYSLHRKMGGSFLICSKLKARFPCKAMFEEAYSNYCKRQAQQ

[24] = target: Receptor-type tyrosine-protein kinase FLT3 (Homo sapiens) (UniProt P36888); settings: Compound concentration 100.0 nM
[25] = target: Phosphorylase b kinase regulatory subunit alpha, liver isoform (Homo sapiens) (UniProt P46019); settings: Compound concentration 100.0 nM
[26] = target: Calcium/calmodulin-dependent protein kinase type 1G (Homo sapiens) (UniProt Q96NX5); settings: Compound concentration 100.0 nM
[27] = target: Phosphatidylinositol 4-phosphate 3-kinase C2 domain-containing subunit beta (Homo sapiens) (UniProt O00750); settings: Compound concentration 100.0 nM
[28] = target: Inhibitor of nuclear factor kappa-B kinase subunit alpha (Homo sapiens) (UniProt O15111); settings: Compound concentration 100.0 nM
[29] = target: Platelet-derived growth factor receptor alpha (Homo sapiens) (UniProt P16234); settings: Compound concentration 100.0 nM
[30] = target: Tyrosine-protein kinase SYK (Homo sapiens) (UniProt P43405); settings: Compound concentration 100.0 nM
[31] = target: Serine/threonine-protein kinase Sgk2 (Homo sapiens) (UniProt Q9HBY8); settings: Compound concentration 100.0 nM
Sequence of Serine/threonine-protein kinase Sgk2 (Homo sapiens) (Q9HBY8 whole entry): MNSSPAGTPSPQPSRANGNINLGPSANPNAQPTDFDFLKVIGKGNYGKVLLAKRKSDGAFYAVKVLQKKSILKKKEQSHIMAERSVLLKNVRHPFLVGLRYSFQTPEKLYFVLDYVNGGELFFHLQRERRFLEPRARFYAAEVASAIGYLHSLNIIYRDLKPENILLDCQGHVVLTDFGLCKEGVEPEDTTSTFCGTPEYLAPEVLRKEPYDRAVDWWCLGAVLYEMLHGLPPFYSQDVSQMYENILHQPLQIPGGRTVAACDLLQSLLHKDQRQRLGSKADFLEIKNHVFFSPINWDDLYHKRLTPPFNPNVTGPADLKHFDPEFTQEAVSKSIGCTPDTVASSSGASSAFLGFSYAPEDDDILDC

[32] = target: Activin receptor type-2A (Homo sapiens) (UniProt P27037); settings: Compound concentration 100.0 nM
Sequence of Activin receptor type-2A (Homo sapiens) (P27037 whole entry): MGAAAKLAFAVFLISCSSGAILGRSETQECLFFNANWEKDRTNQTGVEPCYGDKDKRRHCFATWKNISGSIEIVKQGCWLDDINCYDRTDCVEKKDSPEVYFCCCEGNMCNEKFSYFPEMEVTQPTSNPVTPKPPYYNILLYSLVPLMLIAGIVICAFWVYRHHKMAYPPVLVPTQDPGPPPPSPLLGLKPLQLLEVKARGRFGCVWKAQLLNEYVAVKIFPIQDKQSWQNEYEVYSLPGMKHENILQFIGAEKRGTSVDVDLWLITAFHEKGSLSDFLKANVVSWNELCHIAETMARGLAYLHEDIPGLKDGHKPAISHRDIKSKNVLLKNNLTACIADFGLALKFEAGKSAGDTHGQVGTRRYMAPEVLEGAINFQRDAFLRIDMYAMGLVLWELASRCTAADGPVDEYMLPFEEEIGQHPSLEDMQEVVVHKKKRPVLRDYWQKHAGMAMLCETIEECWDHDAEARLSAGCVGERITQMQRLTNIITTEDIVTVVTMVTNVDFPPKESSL

[33] = target: TGF-beta receptor type-2 (Homo sapiens) (UniProt P37173); settings: Compound concentration 100.0 nM
[34] = target: Protein-tyrosine kinase 6 (Homo sapiens) (UniProt Q13882); settings: Compound concentration 100.0 nM
Sequence of Protein-tyrosine kinase 6 (Homo sapiens) (Q13882 whole entry, looked up): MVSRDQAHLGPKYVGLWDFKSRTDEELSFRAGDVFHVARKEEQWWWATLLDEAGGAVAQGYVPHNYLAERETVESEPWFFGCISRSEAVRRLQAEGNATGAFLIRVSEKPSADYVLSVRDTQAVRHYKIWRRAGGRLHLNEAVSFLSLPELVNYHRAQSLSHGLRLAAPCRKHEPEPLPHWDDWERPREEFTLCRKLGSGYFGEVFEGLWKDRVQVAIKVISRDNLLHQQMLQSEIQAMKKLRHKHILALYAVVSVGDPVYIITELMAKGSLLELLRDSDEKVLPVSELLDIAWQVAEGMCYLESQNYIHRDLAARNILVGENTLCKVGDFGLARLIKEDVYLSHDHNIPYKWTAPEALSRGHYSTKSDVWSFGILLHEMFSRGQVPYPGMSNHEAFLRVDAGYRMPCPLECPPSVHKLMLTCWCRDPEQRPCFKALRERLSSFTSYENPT

[35] = test system: Mast/stem cell growth factor receptor Kit (Homo sapiens), P10721 [V559D,V654A]; settings: Compound concentration 100.0 nM
[36] = target: Serine/threonine-protein kinase MAK (Homo sapiens) (UniProt P20794); settings: Compound concentration 100.0 nM
[37] = target: Serine/threonine-protein kinase Nek10 (Homo sapiens) (UniProt Q6ZWH5); settings: Compound concentration 100.0 nM
[38] = target: Mitogen-activated protein kinase kinase kinase 10 (Homo sapiens) (UniProt Q02779); settings: Compound concentration 100.0 nM
[39] = target: MAP kinase-interacting serine/threonine-protein kinase 2 (Homo sapiens) (UniProt Q9HBH9); settings: Compound concentration 100.0 nM
[40] = target: Mitogen-activated protein kinase 11 (Homo sapiens) (UniProt Q15759); settings: Compound concentration 100.0 nM
[41] = target: Serine/threonine-protein kinase PknB (Mycobacterium tuberculosis) (UniProt P9WI81); settings: Compound concentration 100.0 nM
[42] = target: Beta-2 adrenergic receptor (Homo sapiens) (UniProt P07550); settings: Compound concentration 10.0 uM
Sequence of Beta-2 adrenergic receptor (Homo sapiens) (P07550 whole entry, looked up): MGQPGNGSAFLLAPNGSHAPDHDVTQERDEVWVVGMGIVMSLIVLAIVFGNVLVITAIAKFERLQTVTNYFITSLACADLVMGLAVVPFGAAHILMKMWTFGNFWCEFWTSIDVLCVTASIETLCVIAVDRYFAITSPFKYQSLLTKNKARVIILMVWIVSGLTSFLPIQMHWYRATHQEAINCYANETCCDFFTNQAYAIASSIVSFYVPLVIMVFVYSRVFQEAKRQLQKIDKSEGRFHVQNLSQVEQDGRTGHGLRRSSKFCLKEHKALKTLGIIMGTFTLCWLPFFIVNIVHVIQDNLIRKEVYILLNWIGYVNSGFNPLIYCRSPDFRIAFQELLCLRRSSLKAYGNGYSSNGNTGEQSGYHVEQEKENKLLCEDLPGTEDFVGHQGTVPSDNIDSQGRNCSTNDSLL

[43] = target: ALK tyrosine kinase receptor (Homo sapiens) (UniProt Q9UM73); settings: Compound concentration 100.0 nM
Sequence of ALK tyrosine kinase receptor (Homo sapiens) (Q9UM73 19-1620 limits assumed): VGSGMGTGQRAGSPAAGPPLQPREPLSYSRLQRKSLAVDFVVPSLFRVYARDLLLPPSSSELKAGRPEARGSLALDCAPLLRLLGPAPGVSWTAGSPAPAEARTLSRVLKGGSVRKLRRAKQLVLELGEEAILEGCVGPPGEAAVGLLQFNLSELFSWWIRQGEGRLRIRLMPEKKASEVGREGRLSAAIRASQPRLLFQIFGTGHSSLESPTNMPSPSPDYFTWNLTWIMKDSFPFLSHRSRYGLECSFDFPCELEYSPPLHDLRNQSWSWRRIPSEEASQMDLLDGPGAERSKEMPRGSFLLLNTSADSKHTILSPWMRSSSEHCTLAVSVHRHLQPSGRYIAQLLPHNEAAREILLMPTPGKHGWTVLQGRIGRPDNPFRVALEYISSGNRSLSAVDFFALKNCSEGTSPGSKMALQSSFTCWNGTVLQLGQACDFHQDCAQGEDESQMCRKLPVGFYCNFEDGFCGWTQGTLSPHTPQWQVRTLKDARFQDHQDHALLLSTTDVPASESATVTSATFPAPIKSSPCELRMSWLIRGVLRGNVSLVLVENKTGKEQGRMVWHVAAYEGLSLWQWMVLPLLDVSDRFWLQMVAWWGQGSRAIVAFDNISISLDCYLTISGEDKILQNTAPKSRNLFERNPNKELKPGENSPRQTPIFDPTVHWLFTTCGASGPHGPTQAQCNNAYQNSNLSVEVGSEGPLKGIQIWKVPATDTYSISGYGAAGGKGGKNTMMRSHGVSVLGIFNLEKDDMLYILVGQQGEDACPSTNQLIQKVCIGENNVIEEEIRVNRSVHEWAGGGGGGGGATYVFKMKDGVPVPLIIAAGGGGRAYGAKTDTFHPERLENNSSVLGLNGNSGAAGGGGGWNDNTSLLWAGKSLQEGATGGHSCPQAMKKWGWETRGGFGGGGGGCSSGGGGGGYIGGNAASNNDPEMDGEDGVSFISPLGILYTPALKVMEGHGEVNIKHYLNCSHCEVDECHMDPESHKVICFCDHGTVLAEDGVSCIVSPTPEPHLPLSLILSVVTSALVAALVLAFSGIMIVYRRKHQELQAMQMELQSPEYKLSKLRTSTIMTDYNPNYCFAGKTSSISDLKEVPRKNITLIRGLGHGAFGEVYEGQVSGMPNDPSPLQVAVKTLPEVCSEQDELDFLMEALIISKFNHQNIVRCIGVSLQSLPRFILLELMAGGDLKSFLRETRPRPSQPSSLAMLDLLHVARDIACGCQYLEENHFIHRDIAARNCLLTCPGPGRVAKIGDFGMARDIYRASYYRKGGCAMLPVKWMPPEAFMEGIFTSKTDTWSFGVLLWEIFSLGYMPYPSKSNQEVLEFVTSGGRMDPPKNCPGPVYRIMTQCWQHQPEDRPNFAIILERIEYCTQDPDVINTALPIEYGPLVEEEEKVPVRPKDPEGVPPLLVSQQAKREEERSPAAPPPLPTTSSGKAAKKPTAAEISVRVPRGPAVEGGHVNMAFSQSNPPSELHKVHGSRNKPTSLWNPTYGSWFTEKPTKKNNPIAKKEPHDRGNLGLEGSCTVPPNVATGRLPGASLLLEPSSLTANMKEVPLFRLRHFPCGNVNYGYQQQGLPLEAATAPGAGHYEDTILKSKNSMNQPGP

[44] = target: Cyclin-dependent kinase 4 (Homo sapiens) (UniProt P11802); settings: Compound concentration 100.0 nM
Sequence of Cyclin-dependent kinase 4 (Homo sapiens) (P11802 whole entry): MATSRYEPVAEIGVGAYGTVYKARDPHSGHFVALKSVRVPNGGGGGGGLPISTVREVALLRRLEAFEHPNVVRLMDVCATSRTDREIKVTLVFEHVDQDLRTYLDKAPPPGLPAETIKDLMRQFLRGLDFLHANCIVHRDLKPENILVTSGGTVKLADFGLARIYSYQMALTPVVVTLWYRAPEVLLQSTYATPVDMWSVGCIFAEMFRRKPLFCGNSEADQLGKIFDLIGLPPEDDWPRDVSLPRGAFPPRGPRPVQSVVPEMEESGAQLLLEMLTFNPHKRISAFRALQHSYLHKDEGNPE

[45] = target: Tyrosine-protein kinase receptor UFO (Homo sapiens) (UniProt P30530); settings: Compound concentration 100.0 nM

Sequence of Ribosomal protein S6 kinase alpha-5 (Homo sapiens) (O75582 whole entry, looked up): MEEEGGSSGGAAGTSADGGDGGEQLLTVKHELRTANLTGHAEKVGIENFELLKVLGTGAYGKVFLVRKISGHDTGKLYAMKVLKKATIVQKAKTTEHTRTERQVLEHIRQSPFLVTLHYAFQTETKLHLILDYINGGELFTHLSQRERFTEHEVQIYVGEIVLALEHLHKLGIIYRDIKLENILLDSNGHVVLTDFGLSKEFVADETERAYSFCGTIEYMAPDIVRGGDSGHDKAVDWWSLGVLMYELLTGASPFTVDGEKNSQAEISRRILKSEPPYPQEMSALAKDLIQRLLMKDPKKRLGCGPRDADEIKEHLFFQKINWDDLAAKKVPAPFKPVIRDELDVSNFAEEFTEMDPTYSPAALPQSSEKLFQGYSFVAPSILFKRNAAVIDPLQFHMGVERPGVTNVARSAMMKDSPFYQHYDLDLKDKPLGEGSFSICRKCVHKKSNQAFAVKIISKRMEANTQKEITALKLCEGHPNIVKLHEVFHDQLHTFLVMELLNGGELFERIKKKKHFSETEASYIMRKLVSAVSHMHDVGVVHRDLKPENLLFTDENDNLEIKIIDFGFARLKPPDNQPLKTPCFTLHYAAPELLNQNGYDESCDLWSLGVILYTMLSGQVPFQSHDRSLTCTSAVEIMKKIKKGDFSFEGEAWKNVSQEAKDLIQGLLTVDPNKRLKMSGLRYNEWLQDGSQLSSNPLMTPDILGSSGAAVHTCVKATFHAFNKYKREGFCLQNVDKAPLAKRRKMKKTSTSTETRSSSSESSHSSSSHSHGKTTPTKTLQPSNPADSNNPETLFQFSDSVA

Nc1c(C(=O)NCc2ccc(C(=O)NCCCC3CCCCC3)cc2)cnn1-c1ccccc1 [SR-318]
residual activity [1]: 96% | residual activity [2]: 94% | residual activity [3]: 94% | residual activity [4]: 94% | residual activity [5]: 78% | residual activity [6]: 100% | residual activity [7]: 90% | residual activity [8]: 94% | residual activity [9]: 78% | residual activity [10]: 100% | residual activity [11]: 100% | residual activity [12]: 100% | residual activity [13]: 100% | residual activity [14]: 100% | residual activity [15]: 100% | residual activity [16]: 100% | residual activity [17]: 78% | residual activity [18]: 100% | residual activity [19]: 100% | residual activity [20]: 92% | residual activity [21]: 100% | inhibition [22]: 13.5% | residual activity [23]: 100% | residual activity [24]: 100% | residual activity [25]: 100% | residual activity [26]: 100% | residual activity [27]: 99% | residual activity [28]: 100% | residual activity [29]: 100% | residual activity [30]: 74% | residual activity [31]: 72% | residual activity [32]: 100% | residual activity [33]: 99% | residual activity [34]: 96% | residual activity [35]: 100% | residual activity [36]: 100% | residual activity [37]: 100% | residual activity [38]: 85% | residual activity [39]: 100% | residual activity [40]: 3.4% | residual activity [41]: 100% | inhibition [42]: 6.62% | residual activity [43]: 100% | residual activity [44]: 100% | residual activity [45]: 87%

O=C(NCCCC1CCCCC1)c1ccc(CNC(=O)c2cnn(-c3ccccc3)c2C(F)(F)F)cc1 [SR-321]
residual activity [1]: 87% | residual activity [2]: 100% | residual activity [3]: 100% | residual activity [4]: 100% | residual activity [5]: 100% | residual activity [6]: 77% | residual activity [7]: 100% | residual activity [8]: 100% | residual activity [9]: 94% | residual activity [10]: 100% | residual activity [11]: 100% | residual activity [12]: 100% | residual activity [13]: 100% | residual activity [14]: 98% | residual activity [15]: 100% | residual activity [16]: 100% | residual activity [17]: 97% | residual activity [18]: 82% | residual activity [19]: 99% | residual activity [20]: 100% | residual activity [21]: 100% | inhibition [22]: -1.78% | residual activity [23]: 100% | residual activity [24]: 100% | residual activity [25]: 100% | residual activity [26]: 100% | residual activity [27]: 86% | residual activity [28]: 100% | residual activity [29]: 92% | residual activity [30]: 100% | residual activity [31]: 95% | residual activity [32]: 83% | residual activity [33]: 100% | residual activity [34]: 97% | residual activity [35]: 100% | residual activity [36]: 100% | residual activity [37]: 100% | residual activity [38]: 87% | residual activity [39]: 100% | residual activity [40]: 100% | residual activity [41]: 100% | inhibition [42]: 12.4% | residual activity [43]: 100% | residual activity [44]: 100% | residual activity [45]: 95%
